Laboratory results reported in patent publication US4803227A, “Aminoalkyl ethers of phenols as anticancer agents for the breast and colon” (The University of Manitoba, priority 1984, dated 1989).
Counter-ions that a name gives are not always drawn. Like-named read-outs stand apart in the source and are kept apart here. Blank lines part the entries; values can stand above or below the compound they belong to.

Legend:
[1] = target: AEBS (anti-estrogen binding site), MCF-7 microsomes; assay: competition with [3H]-tamoxifen for AEBS, MCF-7 microsomes; design: species or system human; settings: for IC50: read-out: RSBA (M) for AEBS, MCF-7 microsomes
Source text: (§1) *Relative specific binding affinity (RSBA) is the concentration of cold
(§2) competitor required to displace 50% of the specifically bound label and
(§3) expresses the affinity of the test compound for the receptor relative to
(§4) that of the labelled specific ligand, in this instance 1.5 ×

[2] = target: AEBS (anti-estrogen binding site), rat liver microsomes; assay: competition with [3H]-tamoxifen for AEBS, rat liver microsomes; settings: concentration of cold competitor required to displace 50% of specifically bound label, 1.5 × 10^-9 M [3H]-tamoxifen; read-out: RSBA (M) for AEBS, Rat liver microsomes
Source text: as §1, §2, §3, §4

[3] = test system: MCF-7 human breast cancer cells; assay: cells; settings: for IC90: Homo sapiens, MCF7, 168 h, read-out: D10 (concentration required to effect a 90% reduction in the number of MCF7 cells)
Experimental: Concentrations are shown on the x-axis. […] A longer exposure time (10 days) was employed because this cell line is slower growing than the MCF-7 cell line.
In the case of MCF-7 cells, approximately 2×10^4 MCF-7 cells were seeded into duplicate 25 cm tissue culture flasks containing Dulbecco's modified Eagle's medium supplemented with insulin (10 μg/ml), glucose ([…])and 5% dextran coated charcoal-stripped fetal calf serum to which was added increasing concentrations of the compound to be tested. Cells were allowed to grow for 7 days with one change of medium containing the test compound on day 4. […] Total cell number at each concentration was determined by Coulter counter. […] D (that concentration required to elicit a 90% reduction in cell number relative to the control after 7 days of treatment) was determined for each compound.

[4] = test system: progesterone receptor (PgR) in MCF-7 cells; assay: induction of progesterone receptor (PgR) synthesis in MCF-7 cells; format: cell-based, human; settings: 5 days of pre-incubation, 1×10^-8 M
colon carcinoma (3C872) = assay: colon tumor test in female rats implanted with colon carcinoma (3C872); format: in vivo; settings: for Tumor wt % of Controls / Tumor Evaluation (wt. mg): intramuscular, twice daily for 7 days; for Tumor Evaluation (wt. mg): control 2261
Experimental: The rats had been subcutaneously implanted with colon carcinoma (3C872) and were cancerous. […] The wt. of the tumor was measured after the 7-day treatment and reported as a % (average) of the control tumor wt. (average) using 40 control rats.

MCF-7 cells = settings: 7 days; for reversal of growth inhibition by estradiol: 1×10^-8 M estradiol; for inhibition of growth of MCF-7 cells: tamoxifen 5×10^-7 M, N,N-DPPE 1x-8x tamoxifen concentration
estrogen receptor (ER) [5] = assay: competition with [3H] 17 β-estradiol for ER; format: binding
estrogen receptor (ER) [6] = settings: literature; cited from earlier work
[7] = literature; cited from earlier work
[8] = concentration of cold competitor required to displace 50% of specifically bound label, 1.5 × 10^-9 M [3H]-tamoxifen
[9] = microsome preparation not given

SMILES: CCN(CC)CCOc1ccccc1 [N,N-DPEA, N,N-diethyl-2-phenoxyethylamine hydrochloride, reference compound]
IC50 [1, 8]: 8e-05 M | IC50 [2]: 4e-05 M | IC90 [3]: 1100 µM

SMILES: CCN(CC)CCOc1ccc(Cc2ccccc2)cc1 [N,N-DPPE, N,N-diethyl-2-[(4-phenylmethyl)phenoxy]ethanamine hydrochloride]
IC50 [1, 8]: 7e-07 M | binding to AEBS [1, 9]: bind significantly to AEBS | IC50 [2]: 4e-08 M | IC90 [3]: 16 µM | induction of PgR synthesis above control levels [4]: failure to induce significant syn thesis of progesterone receptor (PgR) above control levels | Tumor wt % of Controls (colon carcinoma (3C872); 8.00 mg/kg per injection): 80% | Tumor Evaluation (wt. mg) (colon carcinoma (3C872); 8.00 mg/kg per injection): 1817 mg | Tumor wt % of Controls (colon carcinoma (3C872); 16.00 mg/kg per injection): 99% | Tumor Evaluation (wt. mg) (colon carcinoma (3C872); 16.00 mg/kg per injection): 2259 mg | Tumor wt % of Controls (colon carcinoma (3C872); 32.00 mg/kg per injection): 68% | Tumor Evaluation (wt. mg) (colon carcinoma (3C872); 32.00 mg/kg per injection): 1557 mg | reduction in tumor growth (colon carcinoma (3C872); 32 mg/kg, 7 days): 30% | optimal dosage (colon carcinoma (3C872); 7-day test): 30 to 40 mg/kg | results at higher doses (colon carcinoma (3C872); above 60 mg/kg): results became poorer | reversal of growth inhibition by estradiol (MCF-7 cells): no significant reversal of its effect by estradiol | inhibition of growth of MCF-7 cells (MCF-7 cells; absence of estradiol): significant growth inhibition, but in all cases, less than that for tamoxifen | inhibition of growth of MCF-7 cells (MCF-7 cells; presence of estradiol): significantly (P<0.001) more inhibition than tamoxifen

SMILES: c1ccc(Cc2ccc(OCCN3CCOCC3)cc2)cc1 [MPPE, N-morpholino-2-[(4-phenylmethyl)phenoxy]ethanamine hydrochloride]
IC50 [1, 8]: 6.6e-07 M | binding to AEBS [1, 9]: bind significantly to AEBS | IC90 [3]: 16 µM | binding to ER (estrogen receptor (ER) [5]): only weakly to ER

SMILES: CC/C(=C(\c1ccccc1)c1ccc(OCCN(C)C)cc1)c1ccccc1 [Tamoxifen, 1-(p-β-dimethylaminoethoxyphenyl)-trans-1,2-diphenylbut-1-ene, reference compound]
IC90 [3]: 4.8 µM | reversal of growth inhibition by estradiol (MCF-7 cells): largely but not completely reversed by the addition of 1×10^-8 M estradiol | inhibition of growth of MCF-7 cells (MCF-7 cells; absence of estradiol): Significant inhibition | competition for the estrogen receptor (estrogen receptor (ER) [6]): compete for the estrogen receptor (ER)

Further lines, with some results ahead:

RSBA (M) for AEBS, MCF-7 microsomes [1, 8]: No affinity
SMILES: C(=C(c1ccccc1)c1ccccc1)c1ccccc1 [Triphenylethylene, triphenylethylene, reference compound]
competition with [3H]-tamoxifen for AEBS ([1]; at all concentrations tested, microsome preparation not given): fails to compete with [^3 H]-tamoxifen for AEBS | cytotoxic effect on MCF-7 cells [3]: no cytotoxic effect on MCF-7 cells after 7 days of exposure | D10 (concentration required to effect a 90% reduction in the number of MCF7 cells) ([3]; 7 days of exposure): No effect | competition with [3H] 17 β-estradiol for ER (estrogen receptor (ER) [5]; at higher concentrations): competes with [^3 H] 17 β-estradiol for ER

IC50 [2]: 2e-06 M | IC90 [3]: 48 µM
SMILES: CN(C)CCOc1ccccc1Cc1ccccc1 [Phenyltoloxamine, N,N-dimethyl-2[(2-phenylmethyl)phenoxy]ethanamine, reference compound]
concentrations at which compound becomes significantly cytotoxic for MCF-7 cells ([3]; human, 10080 min): > 100 µM | anti-histamine effects [7]: pronounced anti-histamine effects
